# Patent US20120183619A1, “TRICLOSAN DERIVATIVES AND NANOPARTICLES COMPRISING SAME” (BAR ILAN UNIVERSITY, priority 2011, published 2012)
# How the values were obtained:
# [1] = system: Staphylococcus Aureus (S. aureus) (Gram-positive); assay: Killing curves / antimicrobial activity on S. aureus; assay type: cell-based
# Experimental: (§1) In order to investigate the antimicrobial activity of the nanoparticles, a series of biological experiments were designed and carried out on two common bacterial pathogens, Escherichia Coli (E. coli) (Gram-negative) and Staphylococcus Aureus (S. aureus) (Gram-positive). Killing curves were determined in triplicate using starting inocula of 10^6 CFU mL^−1. Fresh, overnight growths of bacteria in TSB or TSB-Glu were diluted as necessary to produce the desired starting inocula in 10 mL of medium. T-SNPs and triclosan were tested in concentration ranges from 0 to 50 μg mL^−1 and 0 to 1 μg mL^−1, respectively. Unloaded SNPs were added at the highest tested concentration (50 μg mL^−1). TTESPC was previously dissolved in dimethyl sulfoxide (DMSO) and added to the media at a concentration of 50 μg mL^−1. Samples (100 μL) were removed from each well every 2 h and diluted appropriately in saline. Colony-forming units were determined by spotting 5 μL samples in triplicate on Luria-Bertani agar plates after 24 h incubation at 37° C. To confirm that the antimicrobial properties of the T-SNPs were mediated by the sole release of triclosan, the triclosan-resistant strain of E. coli, RJH108, was exposed to the highest concentration of T-SNPs tested (50 μg mL^−1). The viability was determined by using the same experimental protocol as described above.
# (§2) Despite the similar MICs, a difference in the sensitivity of these strains to the T-SNPs treatment was observed. […] Then, the nanoparticles were centrifuged, filtered and the supernatant was incubated separately with E. coli and S. aureus and their growth was monitored. […]
# (§3) The MIC of free triclosan that affected the growth of the two types of bacteria was measured (FIGS. 11A-B). […] As calculated from the elemental analysis, the triclosan constituted only […] of the nanoparticles, meaning that the highest concentration of nanoparticles taken for the experiments, 50 μg mL^−1, encompassed only 0.041 μg mL^1 of covalently bound triclosan. […]
# [2] = system: Escherichia Coli (E. coli) (Gram-negative); assay: Killing curves / antimicrobial activity on E. coli; assay type: cell-based
# Experimental: as §1, §2, §3
# [3] = cited from earlier work
Compound,"antibacterial activity (control) ([1]; S. aureus, 50 μg mL^−1, dissolved in DMSO)","antibacterial activity (control) ([2]; E. coli, 50 μg mL^−1, dissolved in DMSO)","effect on bacterial growth at equal triclosan concentration ([1]; S. aureus, 0.041 μg mL^1 triclosan (50 μg mL^−1 nanoparticles))","MBC ([1]; Staphylococcus aureus, read-out: minimal bactericidal concentration (MIC)) [µg/mL]",chemical stability (time) ([3]; at up to 200° C.),solubility in aqueous solution ([3]; unless the pH is alkaline),"effect on bacterial growth at equal triclosan concentration ([2]; E. coli, 0.041 μg mL^1 triclosan (50 μg mL^−1 nanoparticles))","MBC ([2]; Escherichia coli, read-out: minimal bactericidal concentration (MIC)) [µg/mL]"
"CCO[Si](CCCNC(=O)Oc1cc(Cl)ccc1Oc1ccc(Cl)cc1Cl)(OCC)OCC [TTESPC, 5-chloro-2-(2,4-dichlorophenoxy)phenyl (3-(triethoxysilyl)propyl)carbamate]",no antibacterial activity was observed,no antibacterial activity was observed,–,–,–,–,–,–
"Oc1cc(Cl)ccc1Oc1ccc(Cl)cc1Cl [triclosan, 5-chloro-2-(2,4-dichlorophenoxy)phenol]",–,–,only began to impede the bacterial growth,0.1,up to 2 h,fairly insoluble,only began to impede the bacterial growth,0.1
